In patent US20140024527A1, “HERBICIDAL PYRAZINONES” (E I DU DE NEMOURS AND COMPANY, priority 2011, published 2014):

Legend:
Format in all cases: in vivo
[1] = system: green foxtail (Setaria viridis); assay: Test B postemergence; conditions: scale 0 to 100
Source text: Seeds of plant species selected from blackgrass (Alopecurus myosuroides), downy bromegrass (Bromus tectorum), green foxtail (Setaria viridis), Italian ryegrass (Lolium multiflorum), wheat (Triticum aestivum), wild oat (Avena fatua), galium (Galium aparine), bermudagrass (Cynodon dactylon), Surinam grass (Brachiaria decumbens), cocklebur (Xanthium strumarium), corn (Zea mays), large crabgrass (Digitaria sanguinalis), woolly cupgrass (Eriochloa villosa), giant foxtail (Setaria faberii), goosegrass (Eleusine indica), johnsongrass (Sorghum halepense), kochia (Kochia scoparia), lambsquarters (Chenopodium album), morningglory (Ipomoea coccinea), yellow nutsedge (Cyperus esculentus), pigweed (Amaranthus retroflexus), ragweed (Ambrosia elatior), soybean (Glycine max), velvetleaf (Abutilon theophrasti), barley (Hordeum vulgare), canarygrass (Phalaris minor), chickweed (Stellaria media), deadnettle (Lamium amplexicaule) and windgrass (Apera spica-venti) were planted in pots containing Redi-Earth® planting medium (Scotts Company, Marysville, Ohio, USA) comprising spaghnum peat moss, vermiculite, wetting agent and starter nutrients and treated postemergence with test compounds formulated in a non-phytotoxic solvent mixture which included a surfactant. Plants ranged in height from 2 to 18 cm (1- to 4-leaf stage).
Treated plants and controls were maintained in a greenhouse for 13 to 15 days, after which time all species were compared to controls and visually evaluated. Plant response ratings, summarized in Table B, are based on a scale of 0 to 100 where 0 is no effect and 100 is complete control. A dash (-) response means no test result.

rice (Oryza sativa) = assay: Test B flooded paddy test; conditions: Flood, scale 0 to 100
Source text: (§1) Plant species in the flooded paddy test consisted of rice (Oryza sativa), umbrella sedge (Cyperus difformis), ducksalad (Heteranthera limosa) and barnyardgrass (Echinochloa crus-galli) grown to the 2-leaf stage for testing. At time of treatment, test pots were flooded to 3 cm above the soil surface, treated by application of test compounds directly to the paddy water, and then maintained at that water depth for the duration of the test. Treated plants and controls were maintained in a greenhouse for 13 to 15 days, after which time all species were compared to controls and visually evaluated. Plant response ratings, summarized in Table B, are based on a scale of 0 to 100 where 0 is no effect and 100 is complete control. A dash (-) response means no test result.

[2] = system: barnyardgrass (Echinochloa crus-galli); assay: Test B flooded paddy test; conditions: Flood
Source text: as §1

[3] = system: umbrella sedge (Cyperus difformis); assay: Test B flooded paddy test; conditions: Flood, scale 0 to 100
Source text: as §1

[4] = system: ducksalad (Heteranthera limosa); assay: Test B flooded paddy test; conditions: Flood, scale 0 to 100
Source text: as §1

[5] = system: morningglory (Ipomoea spp.); assay: Test A postemergence; conditions: 0 to 100 scale, 0 no effect, 100 complete control, approx. 10 days
Source text: (§2) Seeds of barnyardgrass (Echinochloa crus-galli), large crabgrass (Digitaria sanguinalis), giant foxtail (Setaria faberii), morningglory (Ipomoea spp.), pigweed (Amaranthus retroflexus), velvetleaf (Abutilon theophrasti), wheat (Triticum aestivum) and corn (Zea mays) were planted into a blend of loam soil and sand and treated preemergence with a directed soil spray using test chemicals formulated in a non-phytotoxic solvent mixture which included a surfactant. At the same time these species were also treated with postemergence applications of test compounds formulated in the same manner. Plants ranged in height from 2 to 10 cm and were in the one- to two-leaf stage for the postemergence treatments. Treated plants and untreated controls were maintained in a greenhouse for approximately 10 days, after which time all treated plants were compared to untreated controls and visually evaluated for injury. Plant response ratings, summarized in Table A, are based on a 0 to 100 scale where 0 is no effect and 100 is complete control.

[6] = system: wheat (Triticum aestivum); assay: Test A postemergence; conditions: 0 to 100 scale, 0 no effect, 100 complete control, approx. 10 days
Source text: as §2

[7] = system: barnyardgrass (Echinochloa crus-galli); assay: Test A postemergence; conditions: 0 to 100 scale, 0 no effect, 100 complete control, approx. 10 days
Source text: as §2

[8] = system: large crabgrass (Digitaria sanguinalis); assay: Test A postemergence; conditions: 0 to 100 scale, 0 no effect, 100 complete control, approx. 10 days
Source text: as §2

[9] = system: velvetleaf (Abutilon theophrasti); assay: Test A postemergence; conditions: 0 to 100 scale, 0 no effect, 100 complete control, approx. 10 days
Source text: as §2

[10] = system: pigweed (Amaranthus retroflexus); assay: Test A postemergence; conditions: 0 to 100 scale, 0 no effect, 100 complete control, approx. 10 days
Source text: as §2

[11] = system: giant foxtail (Setaria faberii); assay: Test A postemergence; conditions: 0 to 100 scale, 0 no effect, 100 complete control, approx. 10 days
Source text: as §2

corn (Zea mays) [12] = assay: Test A postemergence; conditions: 0 to 100 scale, 0 no effect, 100 complete control, approx. 10 days
Source text: as §2

[13] = system: morningglory (Ipomoea spp.); assay: Test A preemergence; conditions: 0 to 100 scale, 0 no effect, 100 complete control, approx. 10 days
Source text: as §2

[14] = system: wheat (Triticum aestivum); assay: Test A preemergence; conditions: 0 to 100 scale, 0 no effect, 100 complete control, approx. 10 days
Source text: as §2

[15] = system: barnyardgrass (Echinochloa crus-galli); assay: Test A preemergence; conditions: 0 to 100 scale, 0 no effect, 100 complete control, approx. 10 days
Source text: as §2

[16] = system: large crabgrass (Digitaria sanguinalis); assay: Test A preemergence; conditions: 0 to 100 scale, 0 no effect, 100 complete control, approx. 10 days
Source text: as §2

[17] = system: velvetleaf (Abutilon theophrasti); assay: Test A preemergence; conditions: 0 to 100 scale, 0 no effect, 100 complete control, approx. 10 days
Source text: as §2

[18] = system: pigweed (Amaranthus retroflexus); assay: Test A preemergence; conditions: 0 to 100 scale, 0 no effect, 100 complete control, approx. 10 days
Source text: as §2

[19] = system: giant foxtail (Setaria faberii); assay: Test A preemergence; conditions: 0 to 100 scale, 0 no effect, 100 complete control, approx. 10 days
Source text: as §2

corn (Zea mays) [20] = assay: Test A preemergence; conditions: 0 to 100 scale, 0 no effect, 100 complete control, approx. 10 days
Source text: as §2

Question: What does the source list for `COCCn1c(-c2cccc(F)c2)c(Cl)nc(C(=O)C2=C(O)CCCC2=O)c1=O` [Compound 4, 5-chloro-6-(3-fluorophenyl)-3-[(2-hydroxy-6-oxo-1-cyclohexen-1-yl)carbonyl]-1-(2-methoxyethyl)-2(1H)pyrazinone]?
Answer: Plant response rating, Foxtail, Green ([1]; 31 g ai/ha): 35; Plant response rating, Foxtail, Green ([1]; 62 g ai/ha): 35; Plant response rating, Foxtail, Green ([1]; 125 g ai/ha): 35; Plant response rating, Foxtail, Green ([1]; 250 g ai/ha): 70; Plant response rating, Rice (rice (Oryza sativa); 31 g ai/ha): 0; Plant response rating, Rice (rice (Oryza sativa); 62 g ai/ha): 0; Plant response rating, Rice (rice (Oryza sativa); 125 g ai/ha): 0; Plant response rating, Rice (rice (Oryza sativa); 250 g ai/ha): 30; Plant response rating, Barnyardgrass ([2]; 31 g ai/ha, scale 0 to 100): 0; Plant response rating, Barnyardgrass ([2]; 62 g ai/ha, scale 0 to 100): 0; Plant response rating, Barnyardgrass ([2]; 125 g ai/ha, scale 0 to 100): 0; Plant response rating, Barnyardgrass ([2]; 250 g ai/ha, scale 0 to 100 (0 no effect, 100 complete control)): 30; Plant response rating, Sedge, Umbrella ([3]; 31 g ai/ha): 75; Plant response rating, Sedge, Umbrella ([3]; 62 g ai/ha): 75; Plant response rating, Sedge, Umbrella ([3]; 125 g ai/ha): 75; Plant response rating, Sedge, Umbrella ([3]; 250 g ai/ha): 80; Plant response rating, Ducksalad ([4]; 31 g ai/ha): 60; Plant response rating, Ducksalad ([4]; 62 g ai/ha): 65; Plant response rating, Ducksalad ([4]; 125 g ai/ha): 75; Plant response rating, Ducksalad ([4]; 250 g ai/ha): 85; Plant response rating, Morningglory ([5]; 125 g ai/ha): 90; Plant response rating, Morningglory ([5]; 500 g ai/ha): 100; Plant response rating, Wheat ([6]; 125 g ai/ha): 0; Plant response rating, Wheat ([6]; 500 g ai/ha): 10; Plant response rating, Barnyardgrass ([7]; 125 g ai/ha): 60; Plant response rating, Barnyardgrass ([7]; 500 g ai/ha): 100; Plant response rating, Crabgrass, Large ([8]; 125 g ai/ha): 80; Plant response rating, Crabgrass, Large ([8]; 500 g ai/ha): 100; Plant response rating, Velvetleaf ([9]; 125 g ai/ha): 100; Plant response rating, Velvetleaf ([9]; 500 g ai/ha): 100; Plant response rating, Pigweed ([10]; 125 g ai/ha): 80; Plant response rating, Pigweed ([10]; 500 g ai/ha): 100; Plant response rating, Foxtail, Giant ([11]; 125 g ai/ha): 30; Plant response rating, Foxtail, Giant ([11]; 500 g ai/ha): 70; Plant response rating, Corn (corn (Zea mays) [12]; 125 g ai/ha): 0; Plant response rating, Corn (corn (Zea mays) [12]; 500 g ai/ha): 40; Plant response rating, Morningglory ([13]; 125 g ai/ha): 10; Plant response rating, Morningglory ([13]; 500 g ai/ha): 70; Plant response rating, Wheat ([14]; 125 g ai/ha): 0; Plant response rating, Wheat ([14]; 500 g ai/ha): 0; Plant response rating, Barnyardgrass ([15]; 125 g ai/ha): 0; Plant response rating, Barnyardgrass ([15]; 500 g ai/ha): 70; Plant response rating, Crabgrass, Large ([16]; 125 g ai/ha): 80; Plant response rating, Crabgrass, Large ([16]; 500 g ai/ha): 100; Plant response rating, Velvetleaf ([17]; 125 g ai/ha): 40; Plant response rating, Velvetleaf ([17]; 500 g ai/ha): 90; Plant response rating, Pigweed ([18]; 125 g ai/ha): 60; Plant response rating, Pigweed ([18]; 500 g ai/ha): 100; Plant response rating, Foxtail, Giant ([19]; 125 g ai/ha): 0; Plant response rating, Foxtail, Giant ([19]; 500 g ai/ha): 30; Plant response rating, Corn (corn (Zea mays) [20]; 125 g ai/ha): 0; Plant response rating, Corn (corn (Zea mays) [20]; 500 g ai/ha): 0
